Patent publication US20240158446A1, “CYCLIC COMPOUND HAVING SELECTIVE INHIBITORY ACTION ON KRAS OVER HRAS AND NRAS” (CHUGAI SEIYAKU KABUSHIKI KAISHA, priority 2021, published 2024)
Read-outs that look alike come from different tables or passages of the source. *1 amine or outer side, *2 acyl side, *3 side chain or, on linkers, in order; H or OH if unused. Where a SMILES comes first, the peptide text is derived from it. Bridges are numbered along the chain shown (N, C = ends). [ ]: non-standard residue; d: D form. The star is where a group is joined. hPhe(3,5-F2-4-CF3) = N[C@@H](CCc1cc(F)c(C(F)(F)F)c(F)c1)C(=O)O; hPhe(3-Cl-4-CF3) = N[C@@H](CCc1ccc(C(F)(F)F)c(Cl)c1)C(=O)O; NPrPhe(4-CF3) = CCCN[C@@H](Cc1ccc(C(F)(F)F)cc1)C(=O)O; X18 = Cc1ccc(C[C@@H](C(=O)[*:2])N(CC(C)C)[*:1])cc1; NMeAbu(4,4,4-F3) = CN[C@@H](CC(F)(F)F)C(=O)O; NMeGly(cPent) = CN[C@H](C(=O)O)C1CCCC1; Hyp = O=C(O)[C@@H]1C[C@@H](O)CN1; Piperidide(4-Me) = CC1CCN(*)CC1; NMeD = CN[C@@H](CC(=O)O)C(=O)O; NMeL = CN[C@@H](CC(C)C)C(=O)O; Morpholide = C1CN(*)CCO1; NMeA = CN[C@@H](C)C(=O)O; Ac5c = NC1(C(=O)O)CCCC1; Aze = O=C(O)[C@@H]1CCN1; Sar = CNCC(=O)O

Legend:
[1] = target: GDP-bound HRAS wild-type protein (Homo sapiens, UniProt P01112); assay: Binding to HRAS by surface plasmon resonance (SPR), Single Cycle Kinetics; conditions: SPR, GDP-bound HRAS wild-type protein vs GDP-bound KRAS wild-type protein
Chain of GDP-bound HRAS wild-type protein (P01112 whole entry): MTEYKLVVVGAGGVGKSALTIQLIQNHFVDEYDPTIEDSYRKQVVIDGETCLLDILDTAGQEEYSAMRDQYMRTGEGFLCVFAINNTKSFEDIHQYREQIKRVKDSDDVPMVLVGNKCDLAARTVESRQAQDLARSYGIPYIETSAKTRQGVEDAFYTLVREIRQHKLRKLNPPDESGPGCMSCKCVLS

[2] = target: GDP-bound NRAS wild-type protein (Homo sapiens, UniProt P01111); assay: Binding to NRAS by surface plasmon resonance (SPR), Single Cycle Kinetics; conditions: SPR, GDP-bound NRAS wild-type protein vs GDP-bound KRAS wild-type protein
Chain of GDP-bound NRAS wild-type protein (P01111 whole entry): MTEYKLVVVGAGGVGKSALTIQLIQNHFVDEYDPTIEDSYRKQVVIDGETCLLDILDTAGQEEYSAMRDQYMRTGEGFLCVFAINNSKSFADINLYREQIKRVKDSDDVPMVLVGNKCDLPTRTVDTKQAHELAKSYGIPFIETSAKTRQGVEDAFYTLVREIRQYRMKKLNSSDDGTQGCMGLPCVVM

[3] = target: GDP-bound KRAS wild-type protein (Homo sapiens, UniProt P01116); assay: Binding to KRAS by surface plasmon resonance (SPR), Single Cycle Kinetics; conditions: GDP-bound KRAS wild-type protein, read-out: KRAS KD
Chain of GDP-bound KRAS wild-type protein (P01116 whole entry): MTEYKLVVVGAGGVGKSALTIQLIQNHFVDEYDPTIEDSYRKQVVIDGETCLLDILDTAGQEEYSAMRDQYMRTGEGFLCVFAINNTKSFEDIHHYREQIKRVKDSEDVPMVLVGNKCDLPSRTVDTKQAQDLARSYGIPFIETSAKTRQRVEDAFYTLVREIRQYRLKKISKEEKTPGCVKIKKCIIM

[4] = SPR Single Cycle Kinetics, 1:1 binding model

Row | SMILES | Kd [3, 4] [nM] | HRAS/KRAS (ratio of KD value for HRAS to KD value for KRAS) [1] | NRAS/KRAS (ratio of KD value for NRAS to KD value for KRAS) [2] | HRAS/KRAS (ratio of KD value with respect to HRAS to KD value with respect to KRAS) [1] | NRAS/KRAS (ratio of KD value with respect to NRAS to KD value with respect to KRAS) [2] | further results
1 | CC[C@H](C)[C@@H]1NC(=O)[C@H](CC(C)C)N(C)C(=O)C[C@@H](C(=O)N2CCOCC2)N(C)C(=O)[C@H](C2CCCC2)N(C)C(=O)C2(CCCC2)NC(=O)[C@@H]2CCCN2C(=O)[C@H](CCc2ccc(C(F)(F)F)c(Cl)c2)NC(=O)CN(C)C(=O)[C@H](Cc2ccc(C)cc2)N(CC(C)C)C(=O)[C@@H]2CCN2C(=O)[C@H](C)N(C)C1=O [PP0056] ([NMeL]I[NMeA][Aze][X18][Sar][hPhe(3-Cl-4-CF3)]P[Ac5c][NMeGly(cPent)][NMeD]-Morpholide; lactam N-11) | 2.9 | B (a compound having 3 or more and less than 10 is denoted as B) | C (A compound having a KD ratio of 0.1 or more and less than 3 is denoted as C) |  |  | 
2 | C#CCN1CC(=O)N(C)[C@H]2C/C=C\CCN(C2=O)[C@@H](Cc2ccc(C)cc2)C(=O)N(C)CC(=O)N[C@@H](CCc2cc(F)c(C(F)(F)F)c(F)c2)C(=O)N2C[C@H](OCC)C[C@H]2C(=O)NC2(CC(C)(C)C2)C(=O)N(C)[C@@H](C2CCCC2)C(=O)N(C)[C@H](C(=O)N(C)C)CC(=O)N(C)[C@@H](CCC)C(=O)N[C@@H]([C@@H](C)CC)C1=O [PP2095] |  | A (a compound having 10 or more and less than 20 is denoted as A) | A (a compound having 10 or more and less than 20 is denoted as A) |  |  | Kd ([3]; SPR, Single Cycle Kinetics): 0.15 nM
3 | CCO[C@@H]1C[C@H]2C(=O)NC3(CCC3)C(=O)N(C)[C@@H](C3CCCC3)C(=O)N(C)[C@H](C(=O)N(C)C)CC(=O)N(C)[C@@H](CC3CCCC3)C(=O)N[C@@H]([C@@H](C)CC)C(=O)N(C)CC(=O)N(C)[C@H]3C/C=C\CCN(C3=O)[C@@H](Cc3ccc(C)cc3)C(=O)N(C)CC(=O)N[C@@H](CCc3ccc(Cl)c(Cl)c3)C(=O)N2C1 [PP1487] |  |  |  |  |  | HRAS/KRAS (ratio of KD value for HRAS to KD value for KRAS) ([1]; KD ratio class): A (a compound having 10 or more and less than 20 is denoted as A); NRAS/KRAS (ratio of KD value for NRAS to KD value for KRAS) ([2]; KD ratio class): A (a compound having 10 or more and less than 20 is denoted as A); Kd ([3]; SPR, Single Cycle Kinetics, 1:1 binding model): 0.34 nM
4 | C#CC[C@H]1C(=O)N[C@@H]([C@@H](C)CC)C(=O)N(C)CC(=O)N(C)[C@H]2CCCCN(C2=O)[C@@H](Cc2ccc(C(F)(F)F)cc2)C(=O)N(C)CC(=O)N[C@@H](CCc2cc(F)c(C(F)(F)F)c(F)c2)C(=O)N2C[C@H](OCC)C[C@H]2C(=O)NC2(CCC2)C(=O)N(C)[C@@H](C2CCCC2)C(=O)N(C)[C@H](C(=O)N(C)C)CC(=O)N1C [PP0696] | 0.012 |  |  | B (a compound having 3 or more and less than 10 is denoted as B) | B (a compound having 3 or more and less than 10 is denoted as B) | 
5 | CCC[C@H]1C(=O)N[C@@H]([C@@H](C)CC)C(=O)N(C2CC2)CC(=O)N(C)[C@H]2C/C=C\CCN(C2=O)[C@@H](Cc2ccc(C(F)(F)F)cc2)C(=O)N(C)CC(=O)N[C@@H](CCc2ccc(C(F)(F)F)c(OC)c2)C(=O)N2C[C@H](OCC)C[C@H]2C(=O)N(C)C2(CCC2)C(=O)N(C)[C@@H](C2CCCC2)C(=O)N(C)[C@H](C(=O)N(C)C)CC(=O)N1C [PP2316, (2S,8S,12R,14S,20S,23S,27S,30S,36S,38Z)-20-cyclopentyl-32-cyclopropyl-12-ethoxy-8-[2-[3-methoxy-4-(trifluoromethyl)phenyl]ethyl]-N,N,4,16,19,22,26,35-octamethyl-30-[(1S)-1-methylpropyl]-3,6,9,15,18,21,25,28,31,34,42-undecaoxo-27-propyl-2-[[4-(trifluoromethyl)phenyl]methyl]spiro[1,4,7,10,16,19,22,26,29,32,35-undecazatricyclo[34.5.1.0^10,14]dotetracont-38-ene-17,1′-cyclobutane]-23-carboxamide] |  | A (a compound having 10 or more and less than 20 is denoted as A) | A (a compound having 10 or more and less than 20 is denoted as A) |  |  | Kd ([3]; SPR, Single Cycle Kinetics): 0.12 nM
6 | CC[C@H](C)[C@@H]1NC(=O)[C@H](CC(C)C)N(C)C(=O)C[C@@H](C(=O)N2CCOCC2)N(C)C(=O)[C@H](C2CCCC2)N(C)C(=O)C2(CCC2)NC(=O)[C@@H]2CC(F)(F)CN2C(=O)[C@H](CCc2cc(F)c(C(F)(F)F)c(F)c2)NC(=O)CN(C)C(=O)[C@H](Cc2ccc(C(F)(F)F)cc2)N2CCCCC[C@@H](C2=O)N(C)C(=O)CN(C)C1=O [PP0464] | 0.92 |  |  | B (a compound having 3 or more and less than 10 is denoted as B) | B (a compound having 3 or more and less than 10 is denoted as B) | 
7 | C#CC[C@H]1C(=O)N[C@@H]([C@@H](C)CC)C(=O)N(C)CC(=O)N(C)[C@H]2C/C=C\CCN(C2=O)[C@@H](Cc2ccc(C(F)(F)F)cc2)C(=O)N(C)CC(=O)N[C@@H](CCc2ccc(C(F)(F)F)c(OC)c2)C(=O)N2C[C@H](OCC)C[C@H]2C(=O)NC2(CC(C)(C)C2)C(=O)N(C)[C@@H](C2CCCC2)C(=O)N(C)[C@H](C(=O)N(C)CCC)CC(=O)N1C [PP2053] |  | A (a compound having 10 or more and less than 20 is denoted as A) | A (a compound having 10 or more and less than 20 is denoted as A) |  |  | Kd ([3]; SPR, Single Cycle Kinetics): 0.13 nM

Now from value to compound, other results behind:

Row | Kd [3, 4] [nM] | SMILES | HRAS/KRAS (ratio of KD value for HRAS to KD value for KRAS) [1] | NRAS/KRAS (ratio of KD value for NRAS to KD value for KRAS) [2] | HRAS/KRAS (ratio of KD value with respect to HRAS to KD value with respect to KRAS) [1] | NRAS/KRAS (ratio of KD value with respect to NRAS to KD value with respect to KRAS) [2] | further results
8 | 0.42 | CCCN1C(=O)CN(C)C(=O)CN(C)C(=O)[C@H]([C@@H](C)CC)NC(=O)[C@H](CC(C)C)N(C)C(=O)C[C@@H](C(=O)N2CCOCC2)NC(=O)[C@H](C2CCCC2)N(C)C(=O)C2(CCCC2)NC(=O)[C@@H]2CCCN2C(=O)[C@H](CCc2ccc(C(F)(F)F)c(Cl)c2)NC(=O)CN(C)C(=O)[C@@H]1Cc1ccc(C(F)(F)F)cc1 [PP0146] ([NMeL]I[Sar][Sar][NPrPhe(4-CF3)][Sar][hPhe(3-Cl-4-CF3)]P[Ac5c][NMeGly(cPent)]D-Morpholide; lactam N-11) | B (a compound having 3 or more and less than 10 is denoted as B) | B (a compound having 3 or more and less than 10 is denoted as B) |  |  | 
9 | 1.1 | CCCN1C(=O)[C@@H]2CCN2C(=O)[C@H](C)N(C)C(=O)[C@H]([C@@H](C)CC)NC(=O)[C@H](CC(C)C)N(C)C(=O)C[C@@H](C(=O)N2CCC(C)CC2)N(C)C(=O)[C@H](C2CCCC2)N(C)C(=O)C2(CCCC2)NC(=O)[C@@H]2CCCN2C(=O)[C@H](CCc2ccc(C(F)(F)F)c(Cl)c2)NC(=O)CN(C)C(=O)[C@@H]1Cc1ccc(C(F)(F)F)cc1 [PP0185] ([NMeL]I[NMeA][Aze][NPrPhe(4-CF3)][Sar][hPhe(3-Cl-4-CF3)]P[Ac5c][NMeGly(cPent)][NMeD]-{Piperidide(4-Me)}; lactam N-11) | B (a compound having 3 or more and less than 10 is denoted as B) | C (A compound having a KD ratio of 0.1 or more and less than 3 is denoted as C) |  |  | 
10 | 1.9 | CCCN1C(=O)CN(C)C(=O)CN(C)C(=O)[C@H]([C@@H](C)CC)NC(=O)[C@H](CC(C)C)N(C)C(=O)C[C@@H](C(=O)N2CCOCC2)N(C)C(=O)[C@H](CC(F)(F)F)N(C)C(=O)C2(CCCC2)NC(=O)[C@@H]2CCCN2C(=O)[C@H](CCc2cc(F)c(C(F)(F)F)c(F)c2)NC(=O)CN(C)C(=O)[C@@H]1Cc1ccc(C(F)(F)F)cc1 [PP0767] ([NMeL]I[Sar][Sar][NPrPhe(4-CF3)][Sar][hPhe(3,5-F2-4-CF3)]P[Ac5c][NMeAbu(4,4,4-F3)][NMeD]-Morpholide; lactam N-11) |  |  | C (A compound having a KD ratio of 0.1 or more and less than 3 is denoted as C) | B (a compound having 3 or more and less than 10 is denoted as B) | 
11 | 0.044 | CCCN1C(=O)CN(C)C(=O)CN(C)C(=O)[C@H]([C@@H](C)CC)NC(=O)[C@H](CC(C)C)N(C)C(=O)C[C@@H](C(=O)N2CCOCC2)N(C)C(=O)[C@H](C2CCCC2)N(C)C(=O)C2(CCCC2)NC(=O)[C@@H]2C[C@@H](OC)CN2C(=O)[C@H](CCc2ccc(C(F)(F)F)c(Cl)c2)NC(=O)CN(C)C(=O)[C@@H]1Cc1ccc(C(F)(F)F)cc1 [PP0262] ([NMeL]I[Sar][Sar][NPrPhe(4-CF3)][Sar][hPhe(3-Cl-4-CF3)][Hyp](Me)[Ac5c][NMeGly(cPent)][NMeD]-Morpholide; lactam N-11) | B (a compound having 3 or more and less than 10 is denoted as B) | B (a compound having 3 or more and less than 10 is denoted as B) |  |  | 
12 | 0.018 | CCCN1C(=O)CN(C)C(=O)CN(C)C(=O)[C@H]([C@@H](C)CC)NC(=O)[C@H](CC(C)C)N(C)C(=O)C[C@@H](C(=O)N(C)C)N(C)C(=O)[C@H](C2CCCC2)N(C)C(=O)C2(CCCC2)NC(=O)[C@@H]2C[C@@H](OCC)CN2C(=O)[C@H](CCc2ccc(C(F)(F)F)c(Cl)c2)NC(=O)CN(C)C(=O)[C@@H]1Cc1ccc(C(F)(F)F)cc1 [PP0415] ([NMeL]I[Sar][Sar][NPrPhe(4-CF3)][Sar][hPhe(3-Cl-4-CF3)][Hyp](Et)[Ac5c][NMeGly(cPent)][NMeD]-NMe2; lactam N-11) |  |  | B (a compound having 3 or more and less than 10 is denoted as B) | B (a compound having 3 or more and less than 10 is denoted as B) | 
